Test results: ChEMBL document CHEMBL5247653, “Discovery of Clinical Candidate ACT-777991, a Potent CXCR3 Antagonist for Antigen-Driven and Inflammatory Pathologies” (J Med Chem, 2023)
Values after ≈ are worked out from the molar mass of the structure shown. Active and inactive are the calls of the source. The calls are words filed in the database; no cut-off is given here.

Legend:
[1] = biological target: T1, Voltage-gated inwardly rectifying potassium channel KCNH2 (Homo sapiens, UniProt Q12809); experiment: (§1) Inhibition of human ERG K+ currents by GLP assay; type: toxicity
T1 sequence (Q12809 whole entry): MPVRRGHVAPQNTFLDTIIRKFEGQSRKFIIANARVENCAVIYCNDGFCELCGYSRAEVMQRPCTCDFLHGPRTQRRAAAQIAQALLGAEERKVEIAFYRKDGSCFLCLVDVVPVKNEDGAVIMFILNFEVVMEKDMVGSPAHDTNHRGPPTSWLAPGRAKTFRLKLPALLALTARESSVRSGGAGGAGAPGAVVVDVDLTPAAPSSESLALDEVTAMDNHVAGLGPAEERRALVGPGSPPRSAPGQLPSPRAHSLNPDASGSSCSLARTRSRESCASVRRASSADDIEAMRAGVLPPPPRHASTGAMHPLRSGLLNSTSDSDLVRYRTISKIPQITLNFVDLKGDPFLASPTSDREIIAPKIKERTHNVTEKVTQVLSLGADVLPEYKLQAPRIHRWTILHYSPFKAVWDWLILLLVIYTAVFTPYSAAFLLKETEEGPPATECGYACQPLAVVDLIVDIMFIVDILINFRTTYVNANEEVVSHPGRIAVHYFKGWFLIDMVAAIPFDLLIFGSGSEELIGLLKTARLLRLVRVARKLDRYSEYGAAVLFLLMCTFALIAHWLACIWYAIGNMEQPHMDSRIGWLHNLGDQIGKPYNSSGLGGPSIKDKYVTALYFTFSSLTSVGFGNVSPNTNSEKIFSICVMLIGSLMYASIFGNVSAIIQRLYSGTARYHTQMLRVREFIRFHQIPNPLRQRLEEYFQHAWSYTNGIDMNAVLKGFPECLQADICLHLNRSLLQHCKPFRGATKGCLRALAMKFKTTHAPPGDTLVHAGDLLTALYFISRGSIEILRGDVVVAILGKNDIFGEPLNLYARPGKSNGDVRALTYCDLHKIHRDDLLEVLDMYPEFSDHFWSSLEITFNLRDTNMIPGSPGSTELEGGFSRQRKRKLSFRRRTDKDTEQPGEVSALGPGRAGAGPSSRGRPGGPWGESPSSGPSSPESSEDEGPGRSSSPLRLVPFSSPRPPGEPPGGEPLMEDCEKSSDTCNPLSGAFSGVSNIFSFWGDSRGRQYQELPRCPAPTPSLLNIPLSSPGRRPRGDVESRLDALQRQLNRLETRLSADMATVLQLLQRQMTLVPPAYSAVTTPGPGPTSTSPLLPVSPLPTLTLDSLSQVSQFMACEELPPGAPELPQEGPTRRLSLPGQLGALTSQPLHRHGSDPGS

hERG (KCNH2) = hERG (KCNH2) (Homo sapiens, UniProt Q12809); experiment: as §1; type: toxicity; conditions: human
Chain of hERG (KCNH2) (Q12809 whole entry): as above

[2] = In vivo inhibition of hERG in iv dosed dog assessed as increase in QTc interval; type: toxicity, organism-based, Canis lupus familiaris
[3] = biological target: C-C chemokine receptor type 7 (Homo sapiens) (UniProt P32248); experiment: Binding affinity to CCR7 (unknown origin) at 10 uM by radioligand binding assay
Chain of C-C chemokine receptor type 7 (Homo sapiens) (P32248 whole entry): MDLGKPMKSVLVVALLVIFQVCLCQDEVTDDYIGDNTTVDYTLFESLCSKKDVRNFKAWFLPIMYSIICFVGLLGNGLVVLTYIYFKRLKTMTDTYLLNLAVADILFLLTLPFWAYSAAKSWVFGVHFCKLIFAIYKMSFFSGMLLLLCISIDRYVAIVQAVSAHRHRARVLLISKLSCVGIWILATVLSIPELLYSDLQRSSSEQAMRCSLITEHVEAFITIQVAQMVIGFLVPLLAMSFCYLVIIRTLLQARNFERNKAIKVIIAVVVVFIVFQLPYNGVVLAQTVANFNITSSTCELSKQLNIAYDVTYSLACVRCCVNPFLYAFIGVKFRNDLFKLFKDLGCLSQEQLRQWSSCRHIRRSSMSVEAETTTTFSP

[4] = Lipophilicity, log D of compound; type: physicochemical; conditions: octanol/water
[5] = Volume of distribution at steady state in Beagle dog at 2.5 mg/kg,iv or 2.5 mg/kg, po; type: ADME, organism-based, Canis lupus familiaris; conditions: in vivo, read-out: Vdss
[6] = biological target: T2, C-X-C chemokine receptor type 3 (Mus musculus, UniProt O88410); experiment: Antagonist activity at CXCR3 in DBA/1 mouse whole blood assessed as receptor internalization incubated for 30 mins in presence of CXCL10 by flow cytometric analysis; type: tissue-based
T2 sequence (O88410 whole entry): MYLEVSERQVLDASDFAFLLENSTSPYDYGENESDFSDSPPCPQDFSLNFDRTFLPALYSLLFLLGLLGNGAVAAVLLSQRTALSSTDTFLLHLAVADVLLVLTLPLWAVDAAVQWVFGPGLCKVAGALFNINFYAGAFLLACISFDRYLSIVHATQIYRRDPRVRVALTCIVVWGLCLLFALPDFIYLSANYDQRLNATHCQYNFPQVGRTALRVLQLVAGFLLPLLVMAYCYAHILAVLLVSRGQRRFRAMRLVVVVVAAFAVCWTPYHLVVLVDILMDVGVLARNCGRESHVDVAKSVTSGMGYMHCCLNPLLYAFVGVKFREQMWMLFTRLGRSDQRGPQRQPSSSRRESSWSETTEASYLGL

[7] = Cmax in LPS-induced DBA/1 mouse plasma at 0.006 microg/g, po bid preincubated for 3 days followed by LPS stimulation for 30 mins and measured after 72 hrs by flow cytometry; type: ADME, organism-based; parameters: dose 0.006 µg/g, time 6 day, route po; conditions: 0.006 µg/g
[8] = Metabolic stability in rat liver microsomes assessed as intrinsic clearance at 1 uM and measured upto 15 mins in presence of NADPH regenerating system by LC-MS/MS analysis; type: ADME, Microsome; conditions: read-out: CLH
[9] = Apparent permeability across apical to basolateral side in dog MDCK-II cells; type: ADME, cell-based, Canis lupus familiaris
[10] = Protein binding in rabbit plasma assessed as fraction unbound at 0.1 to 300 ug/ml using 14C-labeled ligand by rapid equilibrium dialysis; type: ADME, cell-free, Oryctolagus cuniculus; conditions: at 0.1 to 300 µg/mL, dose 0.1-300 µg/ml
[11] = Metabolic stability in rat hepatocytes assessed as intrinsic clearance per 10^6 cells at 1 uM by LC-MS/MS analysis; type: ADME, cell-based, Hepatocyte
[12] = In vivo inhibition of hERG in iv dosed dog assessed as change in QRS interval; type: toxicity, organism-based, Canis lupus familiaris
[13] = In vivo inhibition of hERG in guinea pig assessed as increase in QTc interval at 27 ug/ml, iv; type: toxicity, organism-based, Cavia porcellus; conditions: at 27 µg/mL
[14] = Metabolic stability in rat hepatocyte assessed as M4 metabolite formation at 1 uM and measured upto 15 mins in presence of NADPH regenerating system by LC-MS/MS analysis; type: ADME, cell-based; conditions: hepatocytes, 0.25 h
[15] = Oral bioavailability in Wistar rat at 3 mg/kg; type: ADME, organism-based; conditions: in vivo
[16] = Protein binding in dog plasma assessed as fraction unbound at 1 uM incubated for 6 hrs by rapid equilibrium dialysis based LC-MS/MS analysis; type: ADME, cell-free, Canis lupus familiaris
[17] = Metabolic stability in dog hepatocyte assessed as M1 metabolite formation at 1 uM and measured upto 15 mins in presence of NADPH regenerating system by LC-MS/MS analysis; type: ADME, cell-based, Canis lupus familiaris; conditions: hepatocytes, 0.25 h
[18] = biological target: fMet-Leu-Phe receptor (Homo sapiens) (UniProt P21462); experiment: Binding affinity to FPR1 (unknown origin) at 10 uM by radioligand binding assay
Chain of fMet-Leu-Phe receptor (Homo sapiens) (P21462 whole entry): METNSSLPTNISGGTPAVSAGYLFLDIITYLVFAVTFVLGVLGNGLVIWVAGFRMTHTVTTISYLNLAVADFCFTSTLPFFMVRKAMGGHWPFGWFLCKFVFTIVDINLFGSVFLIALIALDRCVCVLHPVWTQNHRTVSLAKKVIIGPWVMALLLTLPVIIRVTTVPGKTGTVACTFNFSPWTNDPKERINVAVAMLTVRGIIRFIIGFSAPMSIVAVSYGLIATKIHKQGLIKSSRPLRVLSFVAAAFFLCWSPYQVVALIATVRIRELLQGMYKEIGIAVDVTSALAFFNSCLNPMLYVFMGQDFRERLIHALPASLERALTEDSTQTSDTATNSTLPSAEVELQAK

[19] = Half life in Wistar rat at 3 mg/kg,iv or 3mg/kg, po; type: ADME, organism-based; conditions: in vivo
[20] = biological target: T1, Voltage-gated inwardly rectifying potassium channel KCNH2; experiment: Inhibition of human ERG stably expressed in CHO cells at -80 mV holding voltage by automated QPatch electrophysiological assay; type: toxicity, cell-based
[21] = Genotoxicity in Salmonella typhimurium TA98 at 5000 ug; type: toxicity; conditions: salmonella enterica subsp. enterica serovar typhimurium; dose 5000 µg
CYP2D6 = CYP2D6 (Homo sapiens, UniProt P10635); experiment: […] recombinant human CYP2D6 mediated drug metabolism in human liver microsomes assessed as intrinsic clearance at 1 uM incubated for 45 mins in presence of NADPH regenerating system by LC-MS/MS analysis; type: ADME, Microsome; conditions: recombinant human CYP2D6, read-out: CLH
Chain of CYP2D6 (P10635 whole entry): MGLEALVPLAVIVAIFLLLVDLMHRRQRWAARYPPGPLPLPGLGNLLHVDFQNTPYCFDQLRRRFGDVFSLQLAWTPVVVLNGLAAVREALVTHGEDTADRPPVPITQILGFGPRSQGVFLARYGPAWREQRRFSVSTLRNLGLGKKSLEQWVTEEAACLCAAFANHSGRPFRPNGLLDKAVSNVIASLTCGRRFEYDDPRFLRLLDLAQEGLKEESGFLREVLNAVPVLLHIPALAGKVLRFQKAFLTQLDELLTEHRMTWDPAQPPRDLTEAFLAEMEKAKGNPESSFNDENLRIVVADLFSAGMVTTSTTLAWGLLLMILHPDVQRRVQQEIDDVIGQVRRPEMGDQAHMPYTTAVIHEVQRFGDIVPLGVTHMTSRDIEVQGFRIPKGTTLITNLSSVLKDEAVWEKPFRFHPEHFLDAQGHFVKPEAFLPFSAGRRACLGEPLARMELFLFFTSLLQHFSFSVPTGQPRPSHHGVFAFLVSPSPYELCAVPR

[22] = Drug excretion in urine of Wistar rat assessed as unchanged drug at 1 mg/kg, iv; type: ADME, organism-based; conditions: read-out: Drug excretion
[23] = biological target: T3, C-X-C chemokine receptor type 3 (Homo sapiens) (UniProt P49682); experiment: Binding affinity to human CXCR3 expressed in CHO-K1 cell membrane assessed as dissociation rate constant (koff) using tritium-labeled ligand by […] assay; type: cell membranes; conditions: filed as antagonist
T3 sequence (whole entry): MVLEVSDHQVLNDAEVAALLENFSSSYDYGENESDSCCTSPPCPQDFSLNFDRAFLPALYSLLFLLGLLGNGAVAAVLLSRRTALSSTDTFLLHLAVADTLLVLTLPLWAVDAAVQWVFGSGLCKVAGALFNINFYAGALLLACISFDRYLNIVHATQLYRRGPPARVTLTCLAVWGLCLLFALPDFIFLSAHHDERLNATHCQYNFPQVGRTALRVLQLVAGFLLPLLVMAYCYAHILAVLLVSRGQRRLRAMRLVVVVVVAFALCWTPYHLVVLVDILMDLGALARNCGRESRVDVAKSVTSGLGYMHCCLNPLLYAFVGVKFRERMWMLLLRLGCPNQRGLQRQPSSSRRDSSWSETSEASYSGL

[24] = Cmax in LPS-induced DBA/1 mouse plasma at 0.06 microg/g, po bid preincubated for 3 days followed by LPS stimulation for 30 mins and measured after 72 hrs by flow cytometry; type: ADME, organism-based; parameters: time 6 day, dose 0.06 µg/g, route po; conditions: 0.06 µg/g
[25] = Oral bioavailability in Beagle dog at 2.5 mg/kg; type: ADME, organism-based, Canis lupus familiaris; conditions: in vivo
[26] = Metabolic stability in human liver microsomes assessed as intrinsic clearance at 1 uM and measured upto 15 mins in presence of NADPH regenerating system by LC-MS/MS analysis; type: ADME, Microsome; conditions: read-out: CLH
[27] = biological target: N-formyl peptide receptor 2 (Homo sapiens) (UniProt P25090); experiment: Binding affinity to FPR2 (unknown origin) at 10 uM by radioligand binding assay
Chain of N-formyl peptide receptor 2 (Homo sapiens) (P25090 whole entry): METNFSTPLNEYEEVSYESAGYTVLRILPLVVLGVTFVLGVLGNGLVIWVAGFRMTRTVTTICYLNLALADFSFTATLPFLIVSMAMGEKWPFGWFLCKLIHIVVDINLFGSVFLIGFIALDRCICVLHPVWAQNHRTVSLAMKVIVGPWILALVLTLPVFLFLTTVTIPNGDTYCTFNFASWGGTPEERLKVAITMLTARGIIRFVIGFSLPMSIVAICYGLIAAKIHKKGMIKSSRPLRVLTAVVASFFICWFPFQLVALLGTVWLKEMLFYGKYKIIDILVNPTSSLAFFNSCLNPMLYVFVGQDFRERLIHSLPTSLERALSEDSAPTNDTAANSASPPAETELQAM

[28] = biological target: T4, C-X-C chemokine receptor type 3 (Homo sapiens, UniProt P49682); experiment: Antagonist activity at human CXCR3 expressed in CHO-K1 cells assessed as reduction in CXCL9 induced calcium flux by FLIPR method; type: cell-based
T4 sequence (P49682 whole entry): T3 sequence (whole entry)

Cytochrome P450 2D6 = Cytochrome P450 2D6 (Homo sapiens, UniProt P10635); experiment: Competitive inhibition of CYP2D6 (unknown origin); type: ADME
Chain of Cytochrome P450 2D6 (P10635 whole entry): as the sequence (P10635 whole entry) above

[29] = biological target: T3, C-X-C chemokine receptor type 3 (Homo sapiens); experiment: Binding affinity to CXCR3 (unknown origin) at 10 uM by radioligand binding assay; conditions: filed as antagonist

Activity [3]: inactive | logD [4]: 2.3 | Vd [5]: 1.5 L/kg | IC50 [6]: 0.161 µM | Cmax [7]: 42 ng/mL | microsomal CLint at 1 µM [8]: < 10 µL/min/mg | Papp A→B [9]: 1.5 ×10⁻⁶ cm/s | fraction unbound [10]: 0.1 | CLH [11]: < 2 µL/min/mg | Stability [14]: Unstable | bioavailability [15]: 80% | fraction unbound at 6 h, 1 µM [16]: 0.34 | Stability [17]: Unstable | Activity [18]: inactive | half-life [19]: 5.5 h | microsomal CLint at 1 µM (CYP2D6): < 0.04 µL/min/mg | dose excreted [22]: 4.4% | Kdiss [23]: 0.03 s⁻¹ | Cmax [24]: 559 ng/mL | bioavailability [25]: 89% | microsomal CLint at 1 µM [26]: < 10 µL/min/mg | Activity [27]: inactive | IC50 [28]: 0.0033 µM | IC50 (Cytochrome P450 2D6): > 50 µM | Activity [29]: Active
Structure (SMILES): Cc1ncn(CC(=O)N2CCN(c3sc(C(F)(F)F)nc3-c3cnc(C(F)(F)F)nc3)C[C@H]2CCO)n1
IC50 [1]: 15.4 µM | IC20 (hERG (KCNH2)): 3 µg/mL (≈ 5.45 µM) | inhibition (INH) [2]: Toxic | inhibition (INH) [12]: Non-Toxic | inhibition (INH) [13]: Toxic | IC50 [20]: 26 µM | Activity [21]: Non-Toxic
